The values that follow are results of earlier work, collected in patent US12465592B2, “Structured encapsulated silicon-containing particles” (SISAF LIMITED, priority 2019, dated 2025).

Each structure is given as a SMILES string. A value given as a limit tells only on which side of the number the result lay.

As usually defined, the aqueous solubility is the concentration that dissolves in the medium under given conditions. On to `Clc1ccc(COC(Cn2ccnc2)c2ccc(Cl)cc2Cl)c(Cl)c1` (stereo not shown) [Miconazole], for which the aqueous solubility was less than 1 µg/mL.
